Values of other authors, collected in publication PMC13021292, “Safety, tolerability and pharmacokinetics of DNDI‐6148, a novel agent for leishmaniasis: A randomized, controlled, single ascending dose study in healthy participants” (British Journal of Clinical Pharmacology, 2025).

Parameters: method as in earlier work
Conditions: cited from earlier work

CC1(C)OB(O)c2cc(NC(=O)c3ccc(F)cc3C(F)(F)F)ccc21 [acoziborole]
metabolism and elimination in humans: slow liver metabolism and predominant hepato‐biliary elimination
